Patent US8541598B2, “Biodegradable solvents for the chemical industry” (Dublin City University, priority 2007, dated 2013)
“Also recorded” adds a separate entry of the source. Read-outs that look alike come from different tables or passages of the source.

Tests used:
[1] = Antimicrobial activity / minimum inhibitory concentrations on seven strains of bacteria; assay type: cell-based; settings: read-out: MIC values
Procedure: (§1) Seven strains of bacteria were used in the assessment of the antimicrobial activity of the ILs claimed: 4 gram negative and three gram positive as shown below.
(§2) A wide concentration range was tested (0-20000 μg/ml). The concentrations screened for antibacterial activity are generally from 2 μg/ml to 1000 μg/ml (Table 6). […] The concentration range screened for the ILs containing ethers was up to 20000 μg/ml. At these high concentrations a lack of antibacterial activity is a significant result.

[2] = tested on: Pseudomonas aeruginosa, Escherichia coli, Klebsiella sp., Salmonella sp., Staphylococcus aureus, Enterococcus sp., Bacillus subtilis; assay: as above; assay type: cell-based; settings: for toxicity / antibacterial activity in words: seven strains of bacteria; for MIC values: seven strains, not split, range tested 0-20000 μg/ml
Procedure: as §1, §2

[3] = seven strains, not split, range tested 0-20000 μg/ml

Compound | MIC [1] | toxicity / antibacterial activity in words [2] | MIC [1, 3] | toxicity / antibacterial activity in words ([2]; listed as KG 15) | MIC values [2]
COCCOCCOC(=O)C[n+]1ccn(C)c1C [KG45, 2,3-dimethyl-1-(2-[2-methoxyethoxy]ethoxycarbonylmethyl)imidazolium octylsulfate] | 10 mg/mL | non-toxic | – | – | –
CCCCOCCOCCOC(=O)C[n+]1ccn(C)c1 [KG43, 3-methyl-1-(2-[2-butoxyethoxy]ethoxycarbonylmethyl)imidazolium octylsulfate] | – | non-toxic | 10 mg/mL | – | –
CCCCOCCOC(=O)C[n+]1ccn(C)c1C [KG44] | > 20 mg/mL | non-toxic | – | – | –
COCCOCCOC(=O)Cn1cc[n+](C)c1C.[Br-] [KG18, 2,3-dimethyl-1-(2-[2-methoxyethoxy]ethoxycarbonylmethyl)imidazolium bromide] | – | non-toxic | > 20 mg/mL | – | –
CCOCCOC(=O)Cn1cc[n+](C)c1.[Br-] [KG8, 3-methyl-1-(2-[2-ethoxy]ethoxycarbonylmethyl)imidazolium bromide] | – | non-toxic | > 20 mg/mL | – | –
CC(C)OCCOC(=O)Cn1cc[n+](C)c1.[Br-] [KG9, 3-methyl-1-(2-[2-propoxy]ethoxycarbonylmethyl)imidazolium bromide] | – | non-toxic | > 20 mg/mL | – | –
COCCOC(=O)C[n+]1ccn(C)c1 [KG36, 3-methyl-1-(2-[2-methoxy]ethoxycarbonylmethyl)imidazolium octylsulfate] | – | non-toxic | > 20 mg/mL | – | –
CCCOCCOCCOC(=O)C[n+]1ccn(C)c1 [KG42, 3-methyl-1-(2-[2-propoxyethoxy]ethoxycarbonylmethyl)imidazolium octylsulfate] | – | non-toxic | > 20 mg/mL | – | –
CCC(C)OCCOC(=O)Cn1cc[n+](C)c1.[Br-] (stereo not shown) [KG10, 3-methyl-1-(2-[2-butoxy]ethoxycarbonylmethyl)imidazolium bromide] | – | non-toxic | > 20 mg/mL | – | –
CCC(C)OCCOC(=O)Cn1cc[n+](C)c1C.[Br-] (stereo not shown) [KG16, 2,3-dimethyl-1-(2-[2-butoxy]ethoxycarbonylmethyl)imidazolium bromide] | > 20 mg/mL | non-toxic | – | – | –
Cc1n(C)cc[n+]1CC(=O)N1CCCC1 [KG404, 2,3-dimethyl-1-(pyrrolidinylcarbonylmethyl)imidazolium octylsulfate, reference compound] | – | – | > 20 mg/mL | – | –
CCCCOC(=O)Cn1cc[n+](C)c1.[Br-] [KG19, 3-Methyl-1-(butoxycarbonylmethyl) imidazolium bromide] | – | – | > 20 mg/mL | – | –
CCCCOCCOCCOC(=O)Cn1cc[n+](C)c1.[Br-] [KG15, 3-methyl-1-(2-[2-butoxyethoxy]ethoxycarbonylmethyl)imidazolium bromide] | – | non-toxic | > 20 mg/mL | low toxicity | –
CCOCCOC(=O)C[n+]1ccn(C)c1 [KG37, 3-methyl-1-(2-[2-ethoxy]ethoxycarbonylmethyl)imidazolium octylsulfate] | – | non-toxic | > 20 mg/mL | – | –
CCCCOCCOC(=O)C[n+]1ccn(C)c1 [KG39, 3-methyl-1-(2-[2-butoxy]ethoxycarbonylmethyl)imidazolium octylsulfate] | – | non-toxic | > 20 mg/mL | – | –
CCCCCOC(=O)Cn1cc[n+](C)c1.[Br-] [KG17, 3-Methyl-1-(pentoxycarbonylmethyl) imidazolium bromide] | – | – | > 20 mg/mL | – | –

Compound | MIC [1] | toxicity / antibacterial activity in words [2] | MIC [1, 3] | toxicity / antibacterial activity in words ([2]; listed as KG 15) | MIC values [2]
CCCOCCOC(=O)C[n+]1ccn(C)c1 [KG38, 3-methyl-1-(2-[2-propoxy]ethoxycarbonylmethyl)imidazolium octylsulfate] | – | non-toxic | > 20 mg/mL | – | –
Cn1cc[n+](CC(=O)N2CCCC2)c1 [KG403, 3-methyl-1-(pyrrolidinylcarbonylmethyl)imidazolium octylsulfate, reference compound] | – | – | > 20 mg/mL | – | –
CCCCOC(=O)C[n+]1ccn(C)c1 [KG34, 3-methyl-1-(butoxycarbonylmethyl)imidazolium octylsulfate] | – | non-toxic | 5 mg/mL | – | –
COCCOCCOC(=O)C[n+]1ccn(C)c1 [KG40, 3-methyl-1-(2-[2-methoxyethoxy]ethoxycarbonylmethyl)imidazolium octylsulfate] | – | non-toxic | > 20 mg/mL | – | –
CCCCCOC(=O)C[n+]1ccn(C)c1 [KG35, 3-methyl-1-(pentoxycarbonylmethyl)imidazolium octylsulfate] | – | non-toxic | > 20 mg/mL | – | –
CCCOCCOCCOC(=O)Cn1cc[n+](C)c1.[Br-] [KG14, 3-methyl-1-(2-[2-propoxyethoxy]ethoxycarbonylmethyl)imidazolium bromide] | – | non-toxic | > 20 mg/mL | – | –
COCCOCCOC(=O)Cn1cc[n+](C)c1.[Br-] [KG12, 3-methyl-1-(2-[2-methoxyethoxy]ethoxycarbonylmethyl)imidazolium bromide] | – | non-toxic | > 20 mg/mL | – | –
COCCN(CCOC)C(=O)C[n+]1ccn(C)c1 [KG405] | – | low toxicity; also recorded: non-toxic | > 20 mg/mL | – | –
3-methyl-1-(2-[2-methoxy]ethoxycarbonylmethyl)imidazolium bromide [KG7] | – | non-toxic | – | – | >20000 KG7 μg/ml
3-methyl-1-(2-[2-ethoxyethoxy]ethoxycarbonylmethyl)imidazolium BF4 [KG67] | – | non-toxic | – | – | >20000 KG67 μg/ml
CCOCCOCCOC(=O)C[n+]1ccn(C)c1.O=S(=O)([N-]S(=O)(=O)C(F)(F)F)C(F)(F)F [KG54, 3-methyl-1-(2-[2-ethoxyethoxy]ethoxycarbonylmethyl)imidazolium NTf2] | – | non-toxic | – | – | >20000 KG54 μg/ml
CCOCCOCCOC(=O)C[n+]1ccn(C)c1 [KG41, 3-methyl-1-(2-[2-ethoxyethoxy]ethoxycarbonylmethyl)imidazolium octylsulfate] | 10 mg/mL | non-toxic | – | – | –
3-methyl-1-(2-[2-ethoxy]ethoxycarbonylmethyl)imidazolium BF4 [KG63] | – | non-toxic | – | – | >20000 KG63 μg/ml
2,3-dimethyl-1-(2-[2-butoxy]ethoxycarbonylmethyl)imidazolium BF4 [KG71] | – | non-toxic | – | – | >20000 KG71 μg/ml
COCCOCCOC(=O)C[n+]1ccn(C)c1C.N#C[N-]C#N [KG85, 2,3-dimethyl-1-(2-[2-methoxyethoxy]ethoxycarbonylmethyl)imidazolium N(CN)2] | – | non-toxic | – | – | >20000 KG85 μg/ml
CCOCCOCCOC(=O)Cn1cc[n+](C)c1.[Br-] [KG13, 3-methyl-1-(2-[2-ethoxyethoxy]ethoxycarbonylmethyl)imidazolium bromide] | > 20 mg/mL | non-toxic | – | – | –
